Results as given in patent publication US8722731B2, “Furanyl compounds and the use thereof” (NovoMedix, LLC, priority 2010, dated 2014).

Experiments:
[1] = system: SEMK; experiment: IC50 cell-based assay, suspension cells, SEMK; conditions: Leukemia, read-out: IC50 of Compounds in Suspension Cell Types
Description: (§1) In one embodiment, the IC50s of the compounds provided herein were determined in cell-based assays using adherent cells. In one embodiment, the activity of the compounds provided herein were determined in a cell-based assay using the triple negative breast cancer cell line MDA-MB-468. In one embodiment, the adherent cells used in the cell-based assays may be a cell type selected from Table 1. In one embodiment, the cell-based assay may be carried out as provided herein. On day 0, cells were seeded at 20,000 cells per well in 100 µL of media into individual wells of a 96-well tissue culture plate. The next day, compounds were diluted to twice the desired final concentration and added in 100 µL of media for a final volume of 200 μL. […] Cells were placed back in the incubator, and the absorbance at 490 nm was read after 2-3 hours. […] “Percent Viability” was determined by subtracting the average background value (media only) and expressed as a ratio to the average value obtained from cells treated with only DMSO.
(§2) In one embodiment, the IC50s of the compounds provided herein were determined in cell-based assays using suspension cells. In one embodiment, the activity of the compounds provided herein were determined in a cell-based assay using the JeKo-1 cell line (mantle cell lymphoma) or the Pfeiffer cell line (diffuse large B-cell lymphoma). […]

[2] = system: A549; experiment: IC50 cell-based assay, adherent cells, A549; conditions: Homo sapiens, Lung, NSCLC, 72 hours, read-out: IC50 of Compounds in Adherent Cell Types
Description: (§3) In one embodiment, the IC50s of the compounds provided herein were determined in cell-based assays using adherent cells. In one embodiment, the activity of the compounds provided herein were determined in a cell-based assay using the triple negative breast cancer cell line MDA-MB-468. In one embodiment, the adherent cells used in the cell-based assays may be a cell type selected from Table 1. In one embodiment, the cell-based assay may be carried out as provided herein. On day 0, cells were seeded at 20,000 cells per well in 100 µL of media into individual wells of a 96-well tissue culture plate. The next day, compounds were diluted to twice the desired final concentration and added in 100 µL of media for a final volume of 200 μL. Standard solutions for each compound were prepared at 1000× concentration in DMSO. The highest concentration was 30 mM. Serial 1:1 dilutions were made from there for a 6- or 9-point curve (e.g., 30 mM, 15 mM, 7.5 mM, etc). Compounds were then diluted 1:500 in media, and 100 µL of the resulting solution was added to each well for a final dilution of 1:1000. Each concentration of compound was tested in triplicate. Cells were incubated at 37° C. with 5% CO2. After 72 hours, 20 μL of CellTiter 96 Aqueous One Solution Cell Proliferation Assay (Promega) was added to each well. Cells were placed back in the incubator, and the absorbance at 490 nm was read after 2-3 hours. The concentration of compound that decreased the number of metabolically active cells by 50% was determined and reported as the IC50. “Percent Viability” was determined by subtracting the average background value (media only) and expressed as a ratio to the average value obtained from cells treated with only DMSO.

[3] = system: Du145; experiment: IC50 cell-based assay, adherent cells, Du145; conditions: Homo sapiens, DU-145, Prostate, carcinoma, 72 hours, read-out: IC50 of Compounds in Adherent Cell Types
Description: (§4) In one embodiment, the IC50s of the compounds provided herein were determined in cell-based assays using adherent cells. In one embodiment, the activity of the compounds provided herein were determined in a cell-based assay using the triple negative breast cancer cell line MDA-MB-468. In one embodiment, the adherent cells used in the cell-based assays may be a cell type selected from Table 1. In one embodiment, the cell-based assay may be carried out as provided herein. On day 0, cells were seeded at 20,000 cells per well in 100 µL of media into individual wells of a 96-well tissue culture plate. The next day, compounds were diluted to twice the desired final concentration and added in 100 µL of media for a final volume of 200 μL. Standard solutions for each compound were prepared at 1000× concentration in DMSO. The highest concentration was 30 mM. Serial 1:1 dilutions were made from there for a 6- or 9-point curve (e.g., 30 mM, 15 mM, 7.5 mM, etc). Compounds were then diluted 1:500 in media, and 100 µL of the resulting solution was added to each well for a final dilution of 1:1000. […] Cells were placed back in the incubator, and the absorbance at 490 nm was read after 2-3 hours. […] “Percent Viability” was determined by subtracting the average background value (media only) and expressed as a ratio to the average value obtained from cells treated with only DMSO.

[4] = system: MS1; experiment: IC50 cell-based assay, adherent cells, MS1; conditions: Mus musculus, MS-1, Pancreas, angiosarcoma, 72 hours, read-out: IC50 of Compounds in Adherent Cell Types
Description: as §4

[5] = system: MDA-MB-435; experiment: IC50 cell-based assay, adherent cells, MDA-MB-435; conditions: Homo sapiens, Breast, carcinoma—ductal, 72 hours, read-out: IC50 of Compounds in Adherent Cell Types
Description: as §4

[6] = system: MDA-MB-468 breast tumors; experiment: Tumor growth inhibition in MDA-MB-468 mouse xenograft model for breast cancer (tumor volume); format: in vivo; conditions: SCID mice
Description: In one embodiment, the effects of a compound provided herein on tumor growth in a mouse animal model were evaluated. In specific embodiments, the mouse animal model was the MDA-MB-468 xenograft model for breast cancer. Studies were performed to evaluate the effect of a compound provided herein on the growth of MDA-MB-468 breast tumors in mice. The test system that was used is summarized below:
Exemplary Protocol: Ten mice per group were inoculated s.c. on the left flank with 5×10^6 MDA-MB-468 cells. When tumors reached a mean volume of 100 or 200 mm^3, animals began treatment with a compound provided herein (See Table 4). Test article or vehicle were given once daily by IP injection for up to 21 days. Tumors were evaluated every Monday, Wednesday and Friday, body weights and condition were evaluated on a daily basis.
Cell Culture: MDA-MB-468 breast cancer cells were grown in Liebowitz's L-15 with 10% fetal bovine serum and 1% pen/strep. Cells were routinely trypsinized and passaged 1:4. On the day of implantation, cells were washed in PBS, trypsinized and resuspended in complete media. Cells were washed 3× in serum free media (centrifuged 1000 rpm for 5 min). Cells were resuspended to a density of 1×10^8 cells/mL and diluted 1:1 with Matrigel. Cells were implanted s.c. using a 23 G needle in a volume of 0.1 mL.
Tumor Measurement: Tumors were monitored daily. If, during a daily evaluation, an animal's tumor appeared to have exceeded 1500 mm^3, the tumor was measured; and animals with tumors greater than 1500 mm^3 and/or that had become necrotic and/or hindered movement were euthanized. Tumors were measured twice weekly by measuring each tumor in 2 dimensions, along the largest dimension (length, L) and perpendicular to this dimension (width, W). Tumor weights were calculated using the standard formula: (L×W^2)/2. The mean tumor weight and standard error of the mean were calculated for each group at each time point. An ANOVA was used to compare differences of primary tumor volume.
Compound 1 was dosed in mice at a dose of, for example, qd 50 mg/kg, for 22 days or more.
Compound 2 was dosed in mice at a dose of, for example, qd 20 mg/kg from day 0 to 7, then qd 10 mg/kg from day 8 and thereafter, for 22 days or more.

[7] = system: MHH-CALL-4; experiment: IC50 cell-based assay, suspension cells, MHH-CALL-4; conditions: MHHCALL4, Leukemia, B-ALL (CRLF2 Hi), read-out: IC50 of Compounds in Suspension Cell Types
Description: as §3
In one embodiment, the IC50s of the compounds provided herein were determined in cell-based assays using suspension cells. In one embodiment, the activity of the compounds provided herein were determined in a cell-based assay using the JeKo-1 cell line (mantle cell lymphoma) or the Pfeiffer cell line (diffuse large B-cell lymphoma). In one embodiment, the suspension cells used in the cell-based assays may be a cell type selected from Table 2. Assays with suspension cells were similar except that 40,000-60,000 cells were added to each well and compounds were added immediately after cell plating.

[8] = system: MDA-MB-415; experiment: IC50 cell-based assay, adherent cells, MDA-MB-415; conditions: Homo sapiens, Breast, adenocarcinoma, 72 hours, read-out: IC50 of Compounds in Adherent Cell Types
Description: as §4

[9] = system: XPA-1; experiment: IC50 cell-based assay, adherent cells, XPA-1; conditions: Pancreas, 72 hours, read-out: IC50 of Compounds in Adherent Cell Types
Description: as §4

[10] = system: Molt-4; experiment: IC50 cell-based assay, suspension cells, Molt-4; conditions: Homo sapiens, Leukemia, ALL, read-out: IC50 of Compounds in Suspension Cell Types
Description: as §1, §2

[11] = system: HEK-293; experiment: IC50 cell-based assay, adherent cells, HEK-293; conditions: Homo sapiens, HEK293, Kidney, embryonic, 72 hours, read-out: IC50 of Compounds in Adherent Cell Types
Description: as §4

[12] = system: K562; experiment: IC50 cell-based assay, suspension cells, K562; conditions: Homo sapiens, Leukemia, CML, read-out: IC50 of Compounds in Suspension Cell Types
Description: as §1, §2

[13] = system: BxPc-3; experiment: IC50 cell-based assay, adherent cells, BxPc-3; conditions: Homo sapiens, Pancreas, adenocarcinoma, 72 hours, read-out: IC50 of Compounds in Adherent Cell Types
Description: as §4

O=C(Nc1cc(C(F)(F)F)cc(C(F)(F)F)c1)c1cc(-c2ccccc2)oc1C(F)(F)F [Compound 1, 5-Phenyl-2-trifluoromethyl-furan-3-carboxylic acid (3,5-bis-trifluoromethyl-phenyl)-amide]
IC50 [1]: < 5 µM | IC50 [2]: < 5 µM | IC50 [3]: 5 to 10 µM | IC50 [4]: < 5 µM | IC50 [5]: < 5 µM | Tumor Volumes in Control and Treated Animals, mean ([6]; Day 1, qd 50 mg/kg IP): 112.66 mm^3 | Tumor Volumes in Control and Treated Animals, mean ([6]; Day 3, qd 50 mg/kg IP): 101.41 mm^3 | Tumor Volumes in Control and Treated Animals, mean ([6]; Day 5, qd 50 mg/kg IP): 91.44 mm^3 | Tumor Volumes in Control and Treated Animals, mean ([6]; Day 8, qd 50 mg/kg IP): 146.58 mm^3 | Tumor Volumes in Control and Treated Animals, mean ([6]; Day 10, qd 50 mg/kg IP): 175.96 mm^3 | Tumor Volumes in Control and Treated Animals, mean ([6]; Day 12, qd 50 mg/kg IP): 226.90 mm^3 | Tumor Volumes in Control and Treated Animals, mean ([6]; Day 15, qd 50 mg/kg IP): 276.23 mm^3 | Tumor Volumes in Control and Treated Animals, mean ([6]; Day 17, qd 50 mg/kg IP): 336.22 mm^3 | Tumor Volumes in Control and Treated Animals, mean ([6]; Day 19, qd 50 mg/kg IP): 366.60 mm^3 | Tumor Volumes in Control and Treated Animals, mean ([6]; Day 22, qd 50 mg/kg IP): 383.38 mm^3 | IC50 [7]: 5 to 10 µM | IC50 [8]: < 5 µM | IC50 [9]: 5 to 10 µM | IC50 [10]: < 5 µM | IC50 [11]: < 5 µM | IC50 [12]: < 5 µM | IC50 [13]: 5 to 10 µM

O=C(Nc1cc(C(F)(F)F)cc(C(F)(F)F)c1)c1cc(-c2ccc(Cl)cc2)oc1C(F)(F)F [Compound 2, 5-(4-Chlorophenyl)-N-(3,5-bistrifluoromethylphenyl)-2-trifluoromethylfuran-3-carboxamide]
IC50 [2]: 5 to 10 µM | Tumor Volumes in Control and Treated Animals, mean ([6]; Day 1, qd 20 mg/kg days 0 to 7, then qd 10 mg/kg day 8 and thereafter, IP): 119.09 mm^3 | Tumor Volumes in Control and Treated Animals, mean ([6]; Day 3, qd 20 mg/kg days 0 to 7, then qd 10 mg/kg day 8 and thereafter, IP): 103.39 mm^3 | Tumor Volumes in Control and Treated Animals, mean ([6]; Day 5, qd 20 mg/kg days 0 to 7, then qd 10 mg/kg day 8 and thereafter, IP): 119.30 mm^3 | Tumor Volumes in Control and Treated Animals, mean ([6]; Day 8, qd 20 mg/kg days 0 to 7, then qd 10 mg/kg day 8 and thereafter, IP): 139.19 mm^3 | Tumor Volumes in Control and Treated Animals, mean ([6]; Day 10, qd 20 mg/kg days 0 to 7, then qd 10 mg/kg day 8 and thereafter, IP): 181.97 mm^3 | Tumor Volumes in Control and Treated Animals, mean ([6]; Day 12, qd 20 mg/kg days 0 to 7, then qd 10 mg/kg day 8 and thereafter, IP): 234.51 mm^3 | Tumor Volumes in Control and Treated Animals, mean ([6]; Day 15, qd 20 mg/kg days 0 to 7, then qd 10 mg/kg day 8 and thereafter, IP): 276.34 mm^3 | Tumor Volumes in Control and Treated Animals, mean ([6]; Day 17, qd 20 mg/kg days 0 to 7, then qd 10 mg/kg day 8 and thereafter, IP): 311.15 mm^3 | Tumor Volumes in Control and Treated Animals, mean ([6]; Day 19, qd 20 mg/kg days 0 to 7, then qd 10 mg/kg day 8 and thereafter, IP): 318.18 mm^3 | Tumor Volumes in Control and Treated Animals, mean ([6]; Day 22, qd 20 mg/kg days 0 to 7, then qd 10 mg/kg day 8 and thereafter, IP): 356.43 mm^3 | IC50 [7]: < 5 µM
